Experimental data published in patent US3981868A.
Values after ≈ are worked out from the molar mass of the structure shown.

Experiments:
[1] = system: Trichophyton tonsurans NIH 662; assay: agar-dilution streak-plate antifungal assay (3); type: cell-based; conditions: NIH662, read-out: Minimal inhibitory conc.
Description: (§1) The novel compounds of the present invention are also useful as antimicrobial agents. […] In this assay, the compounds to be tested are made up to contain 2.5 mg. of test compound per milliliter of solution. Observing sterile techniques, two-fold serial dilutions are made of each test solution. One milliliter of each of the original solutions and of each of the serial dilutions is then added to 9 ml. of warm sterile nutrient agar capable of supporting growth of the bacterial test cultures. A second set of agar dilutions is prepared identical to the first except that the nutrient agar is designed to support the growth of the fungal test cultures. […] The test bacteria and yeast-like fungi are prepared for use by growing in broth overnight. The spores of the filamentous fungi are harvested from mature agar slant cultures and are suspended in sterile physiological saline solution. A loopful of each of the resulting live suspensions is then, still employing sterile techniques, streaked upon the surfaces of each of the agar plates and the resulting streaked plates are then incubated. After an appropriate period of time, each of the streaks on each of the plates is inspected visually and the extent, if any, of bacterial or fungal growth is noted. The minimal inhibitory concentration (expressed in micrograms per milliliter) is defined as the concentration of test compound causing complete inhibition of growth of any particular organism. In a representative operation, and merely by way of illustration, the minimal inhibitory concentration of typical compounds of the present invention against a variety of test organisms as determined in the above-described assay are set forth in Tables II and III below: […]

[2] = system: Trichophyton mentagrophytes E 11?; assay: agar-dilution streak-plate antifungal assay (4); type: cell-based; conditions: read-out: Minimal inhibitory conc.
Description: as §1

[3] = system: Mycobacterium smegmatis ATCC 606; assay: agar-dilution streak-plate antibacterial assay (6); type: cell-based; conditions: Mycolicibacterium smegmatis, ATCC606, read-out: Minimal inhibitory conc.
Description: as §1

Trichophyton rubrum E 97 = assay: agar-dilution streak-plate antifungal assay (5); type: cell-based; conditions: E97, read-out: Minimal inhibitory conc.
Description: as §1

[4] = system: Staphylococcus aureus Rose ATCC 14154; assay: agar-dilution streak-plate antibacterial assay (7); type: cell-based; conditions: ATCC14154, read-out: Minimal inhibitory conc.
Description: as §1

diastolic blood pressure = assay: hypotensive activity in anesthetized rats (minimal dose lowering diastolic blood pressure about 10 mm.); type: in vivo, Male Wistar strain rats; conditions: Rattus norvegicus; intravenous; dose producing a decrease of about 10 mm. in diastolic blood pressure
Description: This procedure is a modification of the technique described by Pike et al., Prostaglandins, Nobel Symposium 2, Stockholm, June, 1966; p. 165.
Male Wistar strain rats (Royal Hart Farms) averaging approximately 250 grams in weight were fastened to rat boards in a supine position by means of canvas vests and limb ties. The femoral area was infiltrated subcutaneously with lidocaine and the iliac artery and vein were exposed and cannulated. Arterial blood pressure (systolic/diastolic) was recorded using a Statham P23 Db pressure transducer-Offner dynograph system. To obtain a stable blood pressure, the animals were anesthetized before use with pentobarbital, 30 mg./kg. of body weight intravenously, and also were given hexamethonium bitartrate, 2 mg./kg., of body weight intravenously. The test compounds were prepared by ultrasonic dispersion in a saline-Tween 80 vehicle. A constant intravenous dose volume of 0.5 ml. was administered and test doses ranged from 0.1 to 10.0 mg./kg. of body weight. Increasing or decreasing doses were selected depending on the dose response obtained. In Table I below are set forth the minimal doses required to produce a decrease of about 10 mm. in diastolic blood pressure for typical compounds of the present invention.

gastric acid secretion = assay: inhibition of gastric acid secretion (pylorus-ligated rat, Shay rat); type: in vivo, rats (male, CFE strain); conditions: intraduodenal dose 100 mg./kg. body weight, 3 hours, 20% or more considered active
Description: The novel compounds of the present invention are also effective inhibitors of gastric acid secretion and of ulcer development in experimental animals, and thus are potentially valuable as agents for the control of gastric acid secretion and of gastric erosion and as anti-ulcer agents. Gastric acid secretion inhibitory action is usually measured by the "Shay rat" procedure ^(1,2) with some modifications as follows.
The rats (male, CFE strain) were starved for 48 hours (water was given ad libitum) to permit evacuation of stomach contents. On the morning of the experiment, under ether anesthesia, the abdominal region was shaved and a midline incision (1-11/2 inches) was made with a scalpel. With the help of a closed curved hemostat the duodenum was picked up. Upon getting the duodenum into view fingers were used to pull the stomach through the opening, the stomach was then gently manipulated with fingers to rid the stomach of air and residual matter which were pushed through the pylorus. Two 5-inch sutures were drawn under the pyloric-duodenal juncture. A ligature, at the juncture, was formed with one of the threads. The second ligature was also formed by not tightened.
The test compound or the vehicle, usually 1 ml./100 g. body weight, were injected into the duodenum as close as possible to the first ligature. After injection the second ligature was tightened below the injection site to minimize leakage. The stomach was placed back through the opening into the abdominal cavity, the area of incision was washed with saline and the incision was closed with autoclips. (Ocasionally, instead of an intraduodenal injection, animals were dosed by the oral or subcutaneous route. In the latter case, dosing was done thirty to sixty minutes before the operation).
The abdominal cavity was exposed by cutting with scissors and the esophagus close to the stomach was clamped off with a hemostat, the stomach was removed by cutting above the hemostat (the espohagus was cut) and between the two sutures. Extraneous tissue was removed, the stomach washed with saline and blotted on gauze. A slit was carefully made in the stomach which was held over a funnel and the contents were collected in a centrifuge tube. The stomach was further cut along the outside edge and turned inside out. Two ml. of water were used to wash the stomach contents into the respective centrifuge tube. The combined stomach contents and wash were then centrifuged out for 10 minutes in the International Size 2 Centrifuge (setting at 30). The supernatant was collected, volume measured and recorded, 2 drops of phenolphthalein indicator (1% in 95% ethanol) were added and the solution was titrated with 0.02N NaOH (or with 0.04N NaOH when large volumes of stomach contents were encountered) to pH 8.4 (because of usual coloring of the stomach contents, phenolphthalein was only used to permit visual indication that the end point was near) and the amount of acid present was calculated.
Compounds inducing inhibition of gastric acid secretion of 20% or more were considered active. In a representative operation, and merely by way of illustration, the results obtained with this assay with typical compounds of the present invention are given in Table IIIA.

[5] = system: Streptococcus pyogenes C 203; assay: agar-dilution streak-plate antibacterial assay (8); type: cell-based; conditions: C203, read-out: Minimal inhibitory conc.
Description: as §1

[6] = system: Microsporum canis ATCC 10214; assay: agar-dilution streak-plate antifungal assay (1); type: cell-based; conditions: ATCC10214, read-out: Minimal inhibitory conc.
Description: as §1

[7] = system: Microsporum gypseum ATCC 14683; assay: agar-dilution streak-plate antifungal assay (2); type: cell-based; conditions: Nannizzia gypsea, ATCC14683, read-out: Minimal inhibitory conc.
Description: as §1

[8] = system: dl-PGE1-induced contraction of gerbil colon; assay: inhibition of dl-PGE1-induced contraction of gerbil colon; conditions: approximate; for ID50 vs. 20 ng. of PGE1 /ml.: sub-maximal challenge, 20 ng./ml. dl-PGE1, 50% inhibition of maximum response
Description: Testing for prostaglandin antagonist action is carried out in the following manner.
Sections of ascending colon, approximately 20 mm. long, from mature male gerbils (Meriones unguiculatus) weighing 70-80 g. were mounted in DeJalon's solution (154 mM NaCl; 5.95 mM NAHCO3 ; 278 mM glucose, 5.64 mM KCl and .27 mM Cacl2 in 20 ml. tissue baths) (L. and K Glass Co., Lynnhurst, N.J.). The medium was continually gassed with a mixture of 95% 02 -5% CO2 and maintained at 37°C. The tissues were suspended via silk suture threads between a glass hook at the base and a model FT .03C force displacement transducer (Grass Instrument, Quincy, Mass.).
After mounting, tissues were allowed to stabilize 15-20 minutes during which time adjustments were made to establish and maintain a 0.5 g. resting tension on the muscle. Thereafter, test cycles of 3-5 minutes were begun and consisted of a 1 minute exposure to the potential antagonist, if called for, followed by a 1 minute exposure to the prostaglandin agonist, a 15-30 sec. washout and a recovery period of 2-2.5 minutes. […] During the washout period, the tissue was rinsed with a measured amount equalling 8 volumes of medium. Muscle relaxation was virtually complete by the end of the washout period.
Following stabilization, muscles were exposed 2 to 3 times to this concentration of dl-PGE1 until a consistent response was recorded. Once maximal responses are established, test cycles with potential antagonists were commenced and were followed alternatively with prostaglandin-only test cycle. […] The contraction of the muscle induced by 200 ng./ml. dl-PGE1 following exposure to a given concentration of the potential antagonist was always compared to the response of the tissue to that level of dl-PGE1 in the immediately preceding cycle. Using a series of potential antagonist concentrations, an approximate ID50 (concentration at which 50% inhibition was observed) was established.

[9] = system: basal gastric acid secretion; assay: inhibition of basal gastric acid secretion (acute gastric fistula rat); type: in vivo, Female Sprague-Dawley rats; conditions: 10 mg./kg. intraduodenal
Description: Inhibition of basal gastric acid secretion was determined in the acute gastric fistula rat as follows. Female Sprague-Dawley rats (Charles River Laboratories) weighing 140-160 grams are fasted in individual cages for 18-24 hours. The rats are then lightly anesthetized with ether and their front teeth extracted to avoid destruction of the plastic cannula. A midline incision is then made and the stomach and duodenum exposed. A flanged polyvinyl tube is inserted into the fundic portion of the stomach and secured with a purse string suture line using 4-0 Mersilene. The rat is then dosed by injection of the compound into the duodenum (1.0 ml. per 100 grams body weight). After dosing, the abdominal wall and skin are closed using metal wound clips. The rat is replaced in a cage containing a longitudinal slit to allow the polyvinyl tube to hang freely. An 8 ml. plastic collecting tube is attached to the flanged cannula and hangs freely below the cage. The first 30 minute sample is discarded designating this time as zero. The collecting tube is attached again and samples removed at the end of 60 and 120 minutes. The hourly samples are then transferred to a 15 ml. centrifuge tube and centrifuged for 5-10 minutes. Total and sediment volume are then recorded with the supernatant volume being used as volume of secretion. A 1 ml. or less aliquot is then removed and placed in a 50 ml. beaker containing 10 ml. of distilled water. This sample is then titrated using 0.01N NaOH to pH 7.0 using a Beckman zeromatic pH meter. Volume, titratable acidity (meq/L) and total acid output (μ eq/hour) are recorded. Percent inhibition is determined by comparison with the appropriate control. Groups of three rats were used. All compounds are administered in vehicle (0.5% methocel, 0.4% Tween 80, saline) at a constant volume of 1 ml./100 gram rat. Samples were sonicated with care to prevent overheating.

gerbil ascending colon = assay: contraction of gerbil colon by dl-PGE1; conditions: final concentration of 200 ng./ml.; preliminary tests
Description: Sections of ascending colon, approximately 20 mm. long, from mature male gerbils (Meriones unguiculatus) weighing 70-80 g. were mounted in DeJalon's solution (154 mM NaCl; 5.95 mM NAHCO3 ; 278 mM glucose, 5.64 mM KCl and .27 mM Cacl2 in 20 ml. tissue baths) (L. and K Glass Co., Lynnhurst, N.J.). The medium was continually gassed with a mixture of 95% 02 -5% CO2 and maintained at 37°C. The tissues were suspended via silk suture threads between a glass hook at the base and a model FT .03C force displacement transducer (Grass Instrument, Quincy, Mass.). Contractions were recorded on a Poly-Viso polyraph (Sanborn Co., Cambridge, Mass.
After mounting, tissues were allowed to stabilize 15-20 minutes during which time adjustments were made to establish and maintain a 0.5 g. resting tension on the muscle. Thereafter, test cycles of 3-5 minutes were begun and consisted of a 1 minute exposure to the potential antagonist, if called for, followed by a 1 minute exposure to the prostaglandin agonist, a 15-30 sec. washout and a recovery period of 2-2.5 minutes. […] During the washout period, the tissue was rinsed with a measured amount equalling 8 volumes of medium.
Following stabilization, muscles were exposed 2 to 3 times to this concentration of dl-PGE1 until a consistent response was recorded. […]

CCCCCC/C=C/[C@H]1CCC(=O)[C@@H]1CCCCCCC(=O)N1CCN(C)CC1 (relative stereo)
MIC [1]: 25 µg/mL (≈ 61.8 µM) | MIC [2]: 10 µg/mL (≈ 24.7 µM) | MIC [3]: 10 µg/mL (≈ 24.7 µM) | MIC (Trichophyton rubrum E 97): 25 µg/mL (≈ 61.8 µM) | MIC [4]: 25 µg/mL (≈ 61.8 µM) | minimal effective dose (diastolic blood pressure): 4 mg/kg | Percent Inhibition of gastric acid secretion (gastric acid secretion): 36% | MIC [5]: 10 µg/mL (≈ 24.7 µM) | MIC [6]: 25 µg/mL (≈ 61.8 µM) | MIC [7]: 25 µg/mL (≈ 61.8 µM)

CCCCCC/C=C/[C@H]1CCC(=O)[C@@H]1CCCCCCC(=O)NO (relative stereo)
ID50 vs. 200 ng. of PGE1 ml. ([8]; maximal challenge, 200 ng./ml. dl-PGE1): 12 µg/mL | MIC [1]: 250 µg/mL (≈ 741 µM) | MIC [2]: 250 µg/mL (≈ 741 µM) | MIC [3]: 250 µg/mL (≈ 741 µM) | MIC (Trichophyton rubrum E 97): 250 µg/mL (≈ 741 µM) | MIC [4]: 250 µg/mL (≈ 741 µM) | minimal effective dose (diastolic blood pressure): 2 mg/kg | Percent Inhibition of gastric acid secretion (gastric acid secretion): 38% | MIC [5]: 250 µg/mL (≈ 741 µM) | MIC [6]: 250 µg/mL (≈ 741 µM) | MIC [7]: 250 µg/mL (≈ 741 µM)

CCCCCC/C=C/[C@H]1CCC(=O)[C@@H]1CCCCCCC(=O)NCCCN(C)C (relative stereo)
ID50 vs. 20 ng. of PGE1 /ml. [8]: 0.5 µg/mL | MIC [1]: 100 µg/mL (≈ 246 µM) | MIC [2]: 25 µg/mL (≈ 61.5 µM) | MIC [3]: 10 µg/mL (≈ 24.6 µM) | MIC (Trichophyton rubrum E 97): 100 µg/mL (≈ 246 µM) | MIC [4]: 50 µg/mL (≈ 123 µM) | minimal effective dose (diastolic blood pressure): 0.4 mg/kg | Percent Inhibition of gastric acid secretion (gastric acid secretion): 76% | MIC [5]: 10 µg/mL (≈ 24.6 µM) | MIC [6]: 100 µg/mL (≈ 246 µM) | MIC [7]: 100 µg/mL (≈ 246 µM)

CCCCCC/C=C/[C@H]1CCC(=O)[C@@H]1CCCCCCC(=O)N(C(=O)Nc1ccc(N(C)C)cc1)c1ccc(N(C)C)cc1 (relative stereo) [4,4'-bis(dimethylamino)-N-{7-[trans-2-(1-octenyl)-5-oxocyclopentyl]-heptanoyl}carbanilide]
% Inhibition after 120 minutes, Total Acid Output [9]: 72% | % Inhibition after 120 minutes, Total Acidity [9]: 60%

CCC/C=C/[C@H]1CCC(=O)[C@@H]1CCCCCCC(=O)NCCCN(C)C (relative stereo) [N-(3-dimethylaminopropyl) 9-oxo-18,19,20-trinor-13-trans-prostenamide]
Percent Inhibition of gastric acid secretion (gastric acid secretion): 87%

CCCCCC/C=C/[C@H]1CCC(=O)[C@@H]1CCCCCCC(=O)NN(C)C (relative stereo) [N-(dimethylamino)-9-oxo-13-trans-prostenamide]
ID50 vs. 20 ng. of PGE1 /ml. [8]: 0.5 µg/mL | MIC [1]: 25 µg/mL (≈ 68.6 µM) | MIC [2]: 25 µg/mL (≈ 68.6 µM) | MIC [3]: 10 µg/mL (≈ 27.4 µM) | MIC (Trichophyton rubrum E 97): 25 µg/mL (≈ 68.6 µM) | MIC [4]: 25 µg/mL (≈ 68.6 µM) | minimal effective dose (diastolic blood pressure): 2 mg/kg | Percent Inhibition of gastric acid secretion (gastric acid secretion): 58% | MIC [5]: 10 µg/mL (≈ 27.4 µM) | MIC [6]: 25 µg/mL (≈ 68.6 µM) | MIC [7]: 25 µg/mL (≈ 68.6 µM)

CCCCCC/C=C/[C@H]1CCC(=O)[C@@H]1CCCCCCC(=O)Nc1cccnc1 (relative stereo) [N-(pyridyl-3)-9-oxo-13-trans-prostenamide]
% Inhibition after 120 minutes, Total Acid Output [9]: 54% | % Inhibition after 120 minutes, Total Acidity [9]: 30% | minimal effective dose (diastolic blood pressure): 2 to 8 mg/kg | MIC [5]: 5 µg/mL (≈ 12.5 µM)

CCCCC[C@H](O)/C=C/[C@H]1[C@H](O)CC(=O)[C@@H]1CCCCCCC(=O)O (relative stereo) [dl-PGE1, prostaglandin-E1]
muscle contraction (gerbil ascending colon): maximal muscle contraction

CCCCCC/C=C/[C@H]1CCC(O)[C@@H]1CCCCCCC(=O)NCCCN(C)C (stereo partly drawn) [N-(3-dimethylaminopropyl)-9-(α- and β-)-hydroxy-13-trans-prostenamide]
MIC [1]: 125 µg/mL (≈ 306 µM) | MIC [2]: 125 µg/mL (≈ 306 µM) | MIC [3]: 6 µg/mL (≈ 14.7 µM) | MIC (Trichophyton rubrum E 97): 250 µg/mL (≈ 612 µM) | MIC [4]: 62 µg/mL (≈ 152 µM) | minimal effective dose (diastolic blood pressure): 0.2 mg/kg | Percent Inhibition of gastric acid secretion (gastric acid secretion): 85% | MIC [5]: 6 µg/mL (≈ 14.7 µM) | MIC [6]: 250 µg/mL (≈ 612 µM) | MIC [7]: 125 µg/mL (≈ 306 µM)
